The results in this text go back to patent US20260098283A1, “In Vitro Bioproduction of Specific Chain Legnth Poly(hydroxyalkanoate) Monomers” (Kimberly-Clark Worldwide, Inc., priority 2022, published 2026).

In one assay the test system is fatty acid-CoA ligase. Put plainly: long-chain fatty acid CoA ligase reaction time course, Example 5. The class given is biochemical, Halomonas titanicae. To be noted: Example 5, FIG. 20/21; 1.0 M NaCl, pH 7.5. The source says:
(§1) • Sources: Enzyme sequences were identified by searching the NCBI Protein or Identical Protein Group databases. For this example, it was decided to focus primarily on the thermohalophile Thermobifida halotolerans. Sequences and accession numbers for the enzymes used in this work are listed in Appendix I. All general laboratory chemicals and long chain fatty acids were purchased from Millipore-Sigma Chemical Company (St. Louis, MO). Cloning materials and protein purification supplies were from New England Biolabs (Beverly, MA). • Enzyme cloning: The amino acid sequence for each enzyme was searched for potential signal sequences. If one was present it was removed from the sequence. A histine tag and a TEV protease cleavage sequence were added to the N-ter of each enzyme. This sequence was MHHHHHHENLYFQS to assist in purification (via an NTA-Ni column) and subsequent removal of the hexahistidine tag. Each recombinant enzyme began with an N-ter serine residue as TEV protease cleaves after the glutamine (Q). Each amino acid sequence was back translated to an E. coli codon optimized nucleic acid sequence and was synthesized using standard laboratory gene synthesis techniques. The insert was digested with Nde I and cloned into the similarly digested expression vector pET11d. Final DNA sequences were verified by DNA sequencing. […] 100 U of TEV protease was added per mg of enzyme (approximate ratio of 1:100 (w/w). The reaction was allowed to proceed for 16 h at 4° C. The mixture was passed over a charged nickel column. One column volume of eluent was collected representing purified tag-free enzyme. • Enzyme assays: The formation of long-chain fatty acid-CoA was monitored by measuring the amount of pyrophosphate released from the reaction using the MAK 168 pyrophosphate assay kit from Millipore-Sigma Chemical Co (St. Louis, MO). The formation of PHA was monitored by the increase in optical density (650 nm) as a function of time in a Molecular Devices SpectraMax 5 spectrometer. […]

The test system of assay [1] is five-step reaction from long-chain fatty acid CoA to PHA. Put plainly: formation of precipitating PHA, optical density 650 nm, Example 5. It counts as biochemical, Halomonas titanicae. The conditions noted are these: Example 5, FIG. 22; fatty acid as starting material.
From the text: as §1

Assay [2] has as its system fatty acid-CoA ligase QKS24113. Put plainly: substrate chain length preference of fatty acid-CoA ligase QKS24113. The conditions noted are these: for suitability of the enzyme for the fatty acid (optimal / possible / not possible): result in words; for percent activity: substrate chain length preference distribution, percent activity vs. carbon length, enzyme QKS24113. It counts as biochemical, Halomonas titanicae. An excerpt: (§2) • Sources: Enzyme sequences were identified by searching the NCBI Protein or Identical Protein Group databases. For this example, it was decided to focus primarily on the thermohalophile Thermobifida halotolerans. Sequences and accession numbers for the enzymes used in this work are listed in Appendix I. All general laboratory chemicals and long chain fatty acids were purchased from Millipore-Sigma Chemical Company (St. Louis, MO). Cloning materials and protein purification supplies were from New England Biolabs (Beverly, MA). • Enzyme cloning: The amino acid sequence for each enzyme was searched for potential signal sequences. If one was present it was removed from the sequence. A histine tag and a TEV protease cleavage sequence were added to the N-ter of each enzyme. This sequence was MHHHHHHENLYFQS to assist in purification (via an NTA-Ni column) and subsequent removal of the hexahistidine tag. Each recombinant enzyme began with an N-ter serine residue as TEV protease cleaves after the glutamine (Q). Each amino acid sequence was back translated to an E. coli codon optimized nucleic acid sequence and was synthesized using standard laboratory gene synthesis techniques. The insert was digested with Nde I and cloned into the similarly digested expression vector pET11d. Final DNA sequences were verified by DNA sequencing. Expression plasmids were used to transform E. coli Origami2 (DE3) for expression. • Protein expression and purification: A single colony was used to inoculate 5.0 mL of LBamp media (80 mg/ml ampicillin concentration). Bacteria were grown for 12 hours at 37° C. and this culture was used to inoculate 500 mL of LBamp media. This culture was grown at 37° C. until the optical density (600 nm) reached 0.4 (typically in 3-5 hours). Protein expression was induced by the addition of IPTG to a final concentration of 1 mM. Cells were grown for 12 hours at 37° C. Cells were harvested by centrifugation at 5,000×g for 20 minutes, and frozen at −80° C. until use (minimal time frozen was 24 hours). Cells were thawed on ice and were resuspended in Buffer A (0.5 M NaCl, 20 mM Tris-HCl, 5 mM imidazole, pH 7.9) (typically 1 mL per gram of cells). Cells were disrupted via two passes through a French Press followed by centrifugation at 30,000×g for 30 minutes. The crude extract was mixed with an equal volume of charged His-Bind resin slurry and the mixture was poured into 5 cm×4.9 cc column. The column was washed with 10 column volumes of wash buffer (0.5 M NaCl, 20 mM Tris-HCl, 60 mM imidazole, pH 7.9) at a flow rate of 0.2 mL/min. Enzyme was eluted from the column with the addition of 3 column volumes of 0.5 M NaCl, 20 mM Tris-HCl, 1.0 M imidazole, pH 7.9. Fractions were collected (1.0 mL). Fractions containing enzyme were pooled after analysis by SDS PAGE. The pooled fractions were applied to a 70 cmp×4.9 cc Sephadex G-75 column (10 mM Tris-HCl, PH 7.5, 1 mM EDTA). Fractions containing homogeneous protein were pooled (after inspection by SDS PAGE) and concentrated to 5 mg/ml via Centricon filters. Enzyme was stored frozen at −20° C. until use. The TRX-histidine tag region was removed from the enzymes using TEV protease. Protein was diluted to 1.0 mg/ml into 10 mM Tris-HCl, pH 7.5, 25 mM NaCl. 100 U of TEV protease was added per mg of enzyme (approximate ratio of 1:100 (w/w). The reaction was allowed to proceed for 16 h at 4° C. The mixture was passed over a charged nickel column. One column volume of eluent was collected representing purified tag-free enzyme. • Enzyme assays: The formation of long-chain fatty acid-CoA was monitored by measuring the amount of pyrophosphate released from the reaction using the MAK 168 pyrophosphate assay kit from Millipore-Sigma Chemical Co (St. Louis, MO). The formation of PHA was monitored by the increase in optical density (650 nm) as a function of time in a Molecular Devices SpectraMax 5 spectrometer. The assay measures the increase in light scattering due to precipitating PHA formed during the reaction. […]

The test system of assay [3] is fatty acid-CoA ligase QKS23364. Put plainly: substrate chain length preference of fatty acid-CoA ligase QKS23364. The class given is biochemical, Halomonas titanicae. The conditions noted are these: for suitability of the enzyme for the fatty acid (optimal / possible / not possible): result in words; for percent activity: substrate chain length preference distribution, percent activity vs. carbon length, enzyme QKS23364.
From the text: as §2

In assay [4] the test system is fatty acid-CoA ligase QKS24074. Put plainly: substrate chain length preference of fatty acid-CoA ligase QKS24074. It counts as biochemical, Halomonas titanicae. The conditions noted are these: for suitability of the enzyme for the fatty acid (optimal / possible / not possible): result in words; for percent activity: substrate chain length preference distribution, percent activity vs. carbon length, enzyme QKS24074.
From the text: as §2

For assay [5], the system named is fatty acid-CoA ligase QKS25406. Description: substrate chain length preference of fatty acid-CoA ligase QKS25406. The class given is biochemical, Halomonas titanicae. To be noted: for suitability of the enzyme for the fatty acid (optimal / possible / not possible): result in words; for percent activity: substrate chain length preference distribution, percent activity vs. carbon length, enzyme QKS25406.
From the text: as §2

In assay [6] the test system is fatty acid-CoA ligase QKS26753. Put plainly: substrate chain length preference of fatty acid-CoA ligase QKS26753. To be noted: for suitability of the enzyme for the fatty acid (optimal / possible / not possible): result in words; for percent activity: substrate chain length preference distribution, percent activity vs. carbon length, enzyme QKS26753. It counts as biochemical, Halomonas titanicae.
From the text: as §2

Assay [7] relates to long-chain fatty acid CoA ligase. Put plainly: long-chain fatty acid CoA ligase reaction time course, Example 1 (fatty acid loss, pyrophosphate formation). It counts as biochemical, Thermobifida halotolerans. To be noted: Example 1, FIG. 6/7; single fatty acid substrate.
From the text: as §1, with “sequence.” for “sequence. A histine tag and a TEV protease cleavage sequence were added to the N-ter of each enzyme. This sequence was MHHHHHHENLYFQS to assist in purification (via an NTA-Ni column) and subsequent removal of the hexahistidine tag. Each recombinant enzyme began with an N-ter serine residue as TEV protease cleaves after the glutamine (Q). Each amino acid sequence was back translated to an E. coli codon optimized nucleic acid sequence and was synthesized using standard laboratory gene synthesis techniques. The insert was digested with Nde I and cloned into the similarly digested expression vector pET11d. Final DNA sequences were verified by DNA sequencing.”

In assay [8] the test system is overall 5-step reaction from long-chain fatty acid CoA to PHA. Description: formation of precipitating PHA, optical density 650 nm, Example 1. It counts as biochemical, Thermobifida halotolerans. To be noted: Example 1, FIG. 8; fatty acid as starting material.
From the text: as §1, with “sequencing. Expression plasmids were used to transform E. coli Origami2 (DE3) for expression. • Protein expression and purification: A single colony was used to inoculate 5.0 mL of LBamp media (80 mg/ml ampicillin concentration). Bacteria were grown for 12 hours at 37° C. and this culture was used to inoculate 500 mL of LBamp media. This culture was grown at 37° C. until the optical density (600 nm) reached 0.4 (typically in 3-5 hours). Protein expression was induced by the addition of IPTG to a final concentration of 1 mM. Cells were grown for 12 hours at 37° C. Cells were harvested by centrifugation at 5,000×g for 20 minutes, and frozen at −80° C. until use (minimal time frozen was 24 hours).” for “sequencing.”

Assay [9] deals with WP_068692787 enzyme (long chain fatty acid-CoA synthetase). Put plainly: formation of the CoA moiety followed by pyrophosphate formation, Example 4. The class given is biochemical, Thermobifida halotolerans. To be noted: Example 4, FIG. 16; result in words.
From the text: as §1, with “sequence.” for “sequence. A histine tag and a TEV protease cleavage sequence were added to the N-ter of each enzyme. This sequence was MHHHHHHENLYFQS to assist in purification (via an NTA-Ni column) and subsequent removal of the hexahistidine tag. Each recombinant enzyme began with an N-ter serine residue as TEV protease cleaves after the glutamine (Q). Each amino acid sequence was back translated to an E. coli codon optimized nucleic acid sequence and was synthesized using standard laboratory gene synthesis techniques. The insert was digested with Nde I and cloned into the similarly digested expression vector pET11d. Final DNA sequences were verified by DNA sequencing.”

The test system of assay [10] is WP_068689753 enzyme (long chain fatty acid-CoA synthetase). Description: formation of the CoA moiety followed by pyrophosphate formation, Example 3. It counts as biochemical, Thermobifida halotolerans. To be noted: Example 3, FIG. 13; sole substrate.
From the text: as §1, with “sequence.” for “sequence. A histine tag and a TEV protease cleavage sequence were added to the N-ter of each enzyme. This sequence was MHHHHHHENLYFQS to assist in purification (via an NTA-Ni column) and subsequent removal of the hexahistidine tag. Each recombinant enzyme began with an N-ter serine residue as TEV protease cleaves after the glutamine (Q). Each amino acid sequence was back translated to an E. coli codon optimized nucleic acid sequence and was synthesized using standard laboratory gene synthesis techniques. The insert was digested with Nde I and cloned into the similarly digested expression vector pET11d. Final DNA sequences were verified by DNA sequencing.”

As for `CCCCCCCC(=O)O` [C6, octanoic acid], the “time to completion of the long-chain fatty acid CoA ligase reaction” value (from here on “time to completion”) in the assay on fatty acid-CoA ligase is given as “complete within two hours”. For the same compound, in [1], the “duration of linear formation of precipitating PHA after the lag” value (shortened to “duration”) is 100 min. Also, the “suitability of the enzyme for the fatty acid (optimal / possible / not possible)” value in assay [2] was “not possible enzymes”; in assay [3], “much lower activity”; in assay [4] it was “optimal enzyme”; in assay [5] it was “not possible enzymes”; in assay [6], “not possible enzymes”. Also, the percent activity turned out to be 0.0% in assay [2]; 25.0% in [3]; 100% in assay [4]; 0.0% in assay [5]; 0.0% in [6].
Take `CCCCCCCCCC(=O)O` [C8]: the percent activity in assay [2] came to 0.0%; in assay [3] it was 70.7%; in [4], 100%; in [5], 0.0%; in assay [6], 0.0%.
Turning to `CCCCCCCCCCCCCC(=O)O` [C12, myristic acid], the “time to completion” value (in the assay with fatty acid-CoA ligase; in assay [7]) was “complete within two hours” throughout. In addition, the figures for the “duration” value in assay [1] and in [8] were 100 min and 150 min, respectively. In addition, the “suitability of the enzyme for the fatty acid (optimal / possible / not possible)” value in assay [2] was “much lower activity”; in assay [3], “optimal enzymes”; in [4], “much lower activity”; in [5], “much lower activity”; in [6] it was “optimal enzymes”. Besides, the percent activity in [2] was 5.2%; in assay [3] it was 100%; in assay [4] it was 21.0%; in assay [5] it was 11.6%; in assay [6], 100%. Also, the “lag before measurable increase in optical density (650 nm)” value in assay [8] is “approximately 50 minutes”.
Turning to `CCCCCCCCCCCCCCCC(=O)O` [C14], the percent activity in assay [2] is 21.1%; in assay [3] it was 100%; in assay [4] it was 0.0%; in [5] it was 30.4%; in assay [6], 100%.
In the case of `CCCCCCCCCCCCCCCCCCCC(=O)O` [C18, arachidic acid], the percent activity in assay [2] was found to be 100%; in assay [3], 100%; in [4] it was 0.0%; in assay [5] it was 100%; in [6] it was 5.6%. Also, in assay [7], the “time to completion” value was “complete within two hours”. Besides, the “duration” value in assay [8] was 150 min. Besides, the “lag before measurable increase in optical density (650 nm)” value in [8] was “approximately 50 minutes”.
In the case of `CCCCCCCCCCCCCCCCCCCCCC(=O)O` [C20, behenic acid], in the assay with fatty acid-CoA ligase, the “time to completion” value is “complete within two hours”. In addition, the “duration” value in [1] is 100 min. The “suitability of the enzyme for the fatty acid (optimal / possible / not possible)” value in assay [2] is recorded as “optimal enzymes”; in [3], “much lower activity”; in [4] it was “not possible enzymes”; in assay [5], “optimal enzymes”; in [6] it was “not possible enzymes”. The percent activity in [2] amounted to 100%; in assay [3], 46.5%; in assay [4], 0.0%; in assay [5], 100%; in [6], 0.0%.
Take `CCCCCCC(=O)O` [Heptanoic acid]: in assay [9], the “conversion into the CoA moiety” value is on record as “readily converted”.
Consider `CCCCCCCCCCCCCCCCCCCCCCCCCC(=O)O` [hexacosanoic acid], for which, in assay [10], the “completion of formation of the CoA moiety” value was determined as 240 min and the “lag period of formation of the CoA moiety” value stood at 50 min.
